This passage reports EC50 results from patent publication US8143263B2, “Therapeutic agents” (Astrazeneca AB, priority 2008, dated 2012).

SMILES strings stand for the structures.

In this assay the target is T1, recombinant human pancreatic GLK (Homo sapiens, UniProt P35557).
T1 sequence (P35557 1-465): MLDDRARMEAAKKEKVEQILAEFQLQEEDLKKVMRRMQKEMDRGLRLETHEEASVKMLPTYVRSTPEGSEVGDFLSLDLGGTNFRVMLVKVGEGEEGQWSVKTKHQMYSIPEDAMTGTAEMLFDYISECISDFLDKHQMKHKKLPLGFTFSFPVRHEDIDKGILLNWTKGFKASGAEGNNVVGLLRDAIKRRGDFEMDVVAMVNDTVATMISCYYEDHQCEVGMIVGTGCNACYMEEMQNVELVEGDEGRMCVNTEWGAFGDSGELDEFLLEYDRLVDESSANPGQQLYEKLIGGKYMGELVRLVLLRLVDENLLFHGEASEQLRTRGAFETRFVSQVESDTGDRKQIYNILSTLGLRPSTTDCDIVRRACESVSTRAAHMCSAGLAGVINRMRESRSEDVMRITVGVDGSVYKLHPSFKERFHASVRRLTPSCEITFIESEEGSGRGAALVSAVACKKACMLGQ
Put plainly: biochemical.
Turning to `COC[C@H](Oc1ncnc2c1cnn2-c1ccccc1)C(=O)Nc1ccc(C)cn1` [Example 107, (S)-3-Methoxy-N-(5-methylpyridin-2-yl)-2-(1-phenyl-1H-pyrazolo[3,4-d]pyrimidin-4-yloxy)propanamide], the EC50 was 3600 nM.
For `CC(C)OCC(Oc1ncnc2c1cnn2-c1ccccc1Cl)C(=O)Nc1cnccn1` (stereo not drawn) [Example 108, 2-[1-(2-Chlorophenyl)pyrazolo[4,5-e]pyrimidin-4-yl]oxy-3-isopropoxy-N-pyrazin-2-yl-propanamide], the EC50 worked out at 1300 nM.
Take `Cc1nnc(NC(=O)C(COC(C)C)Oc2ncnc3c2cnn3-c2ccccc2Cl)s1` (stereo not drawn) [Example 109, 2-[1-(2-chlorophenyl)pyrazolo[4,5-e]pyrimidin-4-yl]oxy-3-isopropoxy-N-(5-methyl-1,3,4-thiadiazol-2-yl)propanamide]: the 50% effective concentration (EC50) was found to be 3200 nM.
As to `Cc1cc(NC(=O)C(COC(C)C)Oc2ncnc3c2cnn3-c2ccccc2Cl)no1` (stereo not drawn) [Example 110, 2-[1-(2-chlorophenyl)pyrazolo[4,5-e]pyrimidin-4-yl]oxy-3-isopropoxy-N-(5-methylisoxazol-3-yl)propanamide], the EC50 is 1000 nM.
Consider `Cc1cnc(NC(=O)C(COC(C)C)Oc2ncnc3c2cnn3-c2ccccc2Cl)s1` (stereo not drawn) [Example 111, 2-[1-(2-chlorophenyl)pyrazolo[4,5-e]pyrimidin-4-yl]oxy-3-isopropoxy-N-(5-methylthiazol-2-yl)propanamide], for which the half-maximal effective concentration (EC50) was 330 nM.
`Cc1cnc(NC(=O)[C@H](COC(C)C)Oc2ncnc3c2cnn3-c2ccccc2Cl)s1` [Example 111a, (2S)-2-[1-(2-chlorophenyl)pyrazolo[4,5-e]pyrimidin-4-yl]oxy-3-isopropoxy-N-(5-methylthiazol-2-yl)propanamide]: the concentration for a half-maximal effect (EC50) is 210 nM.
For `CC(C)OCC(Oc1ncnc2c1cnn2-c1ccccc1Cl)C(=O)Nc1ccc(F)cn1` (stereo not drawn) [Example 112, 2-[1-(2-chlorophenyl)pyrazolo[4,5-e]pyrimidin-4-yl]oxy-N-(5-fluoro-2-pyridyl)-3-isopropoxy-propanamide], the concentration for a half-maximal effect (EC50) is 260 nM.
Regarding `CC(C)OC[C@H](Oc1ncnc2c1cnn2-c1ccccc1Cl)C(=O)Nc1ccc(F)cn1` [Example 112a, (2S)-2-[1-(2-chlorophenyl)pyrazolo[4,5-e]pyrimidin-4-yl]oxy-N-(5-fluoro-2-pyridyl)-3-isopropoxy-propanamide], the concentration for a half-maximal effect (EC50) was determined as 220 nM.
Regarding `CC(C)OCC(Oc1ncnc2c1cnn2-c1ccccc1Cl)C(=O)Nc1ccc(C#N)cn1` (stereo not drawn) [Example 113, 2-[1-(2-chlorophenyl)pyrazolo[4,5-e]pyrimidin-4-yl]oxy-N-(5-cyano-2-pyridyl)-3-isopropoxy-propanamide], the EC50 was 300 nM.
With `CC(C)OC[C@H](Oc1ncnc2c1cnn2-c1ccccc1Cl)C(=O)Nc1ccc(C#N)cn1` [Example 113a, (2S)-2-[1-(2-chlorophenyl)pyrazolo[4,5-e]pyrimidin-4-yl]oxy-N-(5-cyano-2-pyridyl)-3-isopropoxy-propanamide], the EC50 came to 300 nM.
Take `CC(C)OCC(Oc1ncnc2c1cnn2-c1ccccc1Cl)C(=O)Nc1ncns1` (stereo not drawn) [Example 114, 2-[1-(2-chlorophenyl)pyrazolo[4,5-e]pyrimidin-4-yl]oxy-3-isopropoxy-N-(1,2,4-thiadiazol-5-yl)propanamide]: the concentration giving a half-maximal response (EC50) was 2100 nM.
Take `CC(C)OCC(Oc1ncnc2c1cnn2-c1ccccc1Cl)C(=O)Nc1ccc(Cl)cn1` (stereo not drawn) [Example 115, 2-[1-(2-chlorophenyl)pyrazolo[4,5-e]pyrimidin-4-yl]oxy-N-(5-chloro-2-pyridyl)-3-isopropoxy-propanamide]: the EC50 came to 110 nM.
Turning to `CC(C)OC[C@H](Oc1ncnc2c1cnn2-c1ccccc1Cl)C(=O)Nc1ccc(Cl)cn1` [Example 115a, (2S)-2-[1-(2-chlorophenyl)pyrazolo[4,5-e]pyrimidin-4-yl]oxy-N-(5-chloro-2-pyridyl)-3-isopropoxy-propanamide], the EC50 came out at 98 nM.
With `Cc1ccnc(NC(=O)C(COC(C)C)Oc2ncnc3c2cnn3-c2ccccc2Cl)c1` (stereo not drawn) [Example 116, 2-[1-(2-chlorophenyl)pyrazolo[4,5-e]pyrimidin-4-yl]oxy-3-isopropoxy-N-(4-methyl-2-pyridyl)propanamide], the EC50 was 2300 nM.
As for `CC(C)OCC(Oc1ncnc2c1cnn2-c1ccccc1Cl)C(=O)Nc1nncs1` (stereo not drawn) [Example 117, 2-[1-(2-chlorophenyl)pyrazolo[4,5-e]pyrimidin-4-yl]oxy-3-isopropoxy-N-(1,3,4-thiadiazol-2-yl)propanamide], the figure is 6800 nM.
As for `CC(C)OCC(Oc1ncnc2c1cnn2-c1ccccc1Cl)C(=O)Nc1ccccn1` (stereo not drawn) [Example 118, 2-[1-(2-chlorophenyl)pyrazolo[4,5-e]pyrimidin-4-yl]oxy-3-isopropoxy-N-(2-pyridyl)propanamide], the figure is 150 nM; as for `CC(C)OC[C@H](Oc1ncnc2c1cnn2-c1ccccc1Cl)C(=O)Nc1ccccn1` [Example 118a, (2S)-2-[1-(2-chlorophenyl)pyrazolo[4,5-e]pyrimidin-4-yl]oxy-3-isopropoxy-N-(2-pyridyl)propanamide], 120 nM; as for `CC(C)OCC(Oc1ncnc2c1cnn2-c1ccccc1Cl)C(=O)Nc1ccon1` (stereo not drawn) [Example 119, 2-[1-(2-chlorophenyl)pyrazolo[4,5-e]pyrimidin-4-yl]oxy-3-isopropoxy-N-isoxazol-3-yl-propanamide], 1200 nM.
The result for `CC(C)OCC(Oc1ncnc2c1cnn2-c1ccccc1Cl)C(=O)Nc1ccncn1` (stereo not drawn) [Example 120, 2-[1-(2-chlorophenyl)pyrazolo[4,5-e]pyrimidin-4-yl]oxy-3-isopropoxy-N-pyrimidin-4-yl-propanamide] reads 540 nM.
As for `Cc1ccc(NC(=O)[C@H](COC(C)C)Oc2ncnc3c2cnn3-c2ncccc2C)nc1` [Example 125, (2S)-3-Isopropoxy-N-(5-methylpyridin-2-yl)-2-(1-(3-methylpyridin-2-yl)-1H-pyrazolo[3,4-d]pyrimidin-4-yloxy)propanamide], the concentration giving a half-maximal response (EC50) was 310 nM.
As for `Cc1ccc(NC(=O)[C@H](COC(C)C)Oc2ncnc3c2cnn3-c2ncccc2C(F)(F)F)nc1` [Example 126, (2S)-3-Isopropoxy-N-(5-methylpyridin-2-yl)-2-(1-(3-(trifluoromethyl)pyridin-2-yl)-1H-pyrazolo[3,4-d]pyrimidin-4-yloxy)propanamide], the EC50 was 570 nM.
The result for `Cc1ccc(NC(=O)[C@H](COC(C)C)Oc2ncnc3c2cnn3-c2ncccc2Cl)nn1` [Example 127, (2S)-2-[1-(3-chloro-2-pyridyl)pyrazolo[4,5-e]pyrimidin-4-yl]oxy-3-isopropoxy-N-(6-methylpyridazin-3-yl)propanamide] reads 6000 nM; that for `Cc1cccnc1-n1ncc2c(O[C@@H](COC(C)C)C(=O)Nc3ccc(C#N)cn3)ncnc21` [Example 127a, (2S)—N-(5-cyanopyridin-2-yl)-3-isopropoxy-2-(1-(3-methylpyridin-2-yl)-1H-pyrazolo[3,4-d]pyrimidin-4-yloxy)propanamide], 1100 nM.
As for `Cc1cccnc1-n1ncc2c(O[C@@H](COC(C)C)C(=O)Nc3ccc(Cl)cn3)ncnc21` [Example 127b, (2S)—N-(5-chloropyridin-2-yl)-3-isopropoxy-2-(1-(3-methylpyridin-2-yl)-1H-pyrazolo[3,4-d]pyrimidin-4-yloxy)propanamide], the figure is 840 nM.

For orientation: EC50 means the midpoint of the concentration-response curve.
